# Results taken from patent US10729668B2, “Ketobutyrate compounds and compositions for treating age-related symptoms and diseases” (The Regents of the University of California, priority 2014, dated 2020).
# What was measured:
# HCV = assay: Renilla reporter HCV infection of Huh7.5 cells, luciferase activity; type: cell-based; conditions: 1 mM and 1 μM, 72 hours post treatment
# Method: As subjects age, their susceptibility to infection increases. Therefore, to determine whether α-KB reduces ones susceptibility to age-related infection, Huh7.5 cells were infected with the Renilla reporter HCV for 5 hours and subsequently treated with 1 mM and 1 μM of α-KB. 72 hours post treatment, the cells were lysed and luciferase activity was measured. JG-98, which is a suppressor of viral assembly, was used as a positive control and water was used as a negative control. […] To ensure that the anti-viral activity of α-KB is not the result of cytotoxicity, Huh7.5 cells were treated with 1 mM, 100 μM, 10 μM, 1 μM, and 100 nM α-KB. MTT assays were performed every 24 hours up to 72 hours post treatment. Luteolin, an anti-cancer compound which is cytotoxic, was used as a positive control and water was used as a negative control.
# pyruvate dehydrogenase = target: T1, pyruvate dehydrogenase (Bos taurus, UniProt A7MB35+P11966); assay: Pyruvate Dehydrogenase (PDH) Enzyme Activity Microplate Assay; type: biochemical, bovine; conditions: vehicle mean as 100 percent
# T1 construct: purchased Abcam ab110338 (lysate); ab109902 (assay kit); host or cells: bovine heart mitochondrial lysate
# T1 sequence (A7MB35 30-390): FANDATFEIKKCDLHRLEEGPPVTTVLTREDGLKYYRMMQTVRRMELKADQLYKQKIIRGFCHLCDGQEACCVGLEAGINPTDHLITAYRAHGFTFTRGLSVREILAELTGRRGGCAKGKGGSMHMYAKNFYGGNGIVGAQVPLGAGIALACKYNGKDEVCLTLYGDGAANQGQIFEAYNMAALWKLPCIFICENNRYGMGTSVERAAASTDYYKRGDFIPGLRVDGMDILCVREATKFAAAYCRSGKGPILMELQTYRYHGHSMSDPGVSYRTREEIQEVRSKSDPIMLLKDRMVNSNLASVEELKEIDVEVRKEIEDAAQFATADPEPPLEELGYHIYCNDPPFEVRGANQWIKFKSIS
# T1 sequence (P11966 31-359): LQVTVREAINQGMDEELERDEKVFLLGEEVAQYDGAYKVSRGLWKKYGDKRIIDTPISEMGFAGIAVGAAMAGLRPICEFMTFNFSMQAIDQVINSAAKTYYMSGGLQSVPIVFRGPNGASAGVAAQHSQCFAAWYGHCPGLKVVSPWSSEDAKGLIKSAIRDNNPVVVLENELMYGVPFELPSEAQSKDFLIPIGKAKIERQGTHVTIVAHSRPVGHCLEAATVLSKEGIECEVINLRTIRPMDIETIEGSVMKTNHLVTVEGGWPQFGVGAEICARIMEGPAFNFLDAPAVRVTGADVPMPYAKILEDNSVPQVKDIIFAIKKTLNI
# T1 sequence (P11180 87-647 partner): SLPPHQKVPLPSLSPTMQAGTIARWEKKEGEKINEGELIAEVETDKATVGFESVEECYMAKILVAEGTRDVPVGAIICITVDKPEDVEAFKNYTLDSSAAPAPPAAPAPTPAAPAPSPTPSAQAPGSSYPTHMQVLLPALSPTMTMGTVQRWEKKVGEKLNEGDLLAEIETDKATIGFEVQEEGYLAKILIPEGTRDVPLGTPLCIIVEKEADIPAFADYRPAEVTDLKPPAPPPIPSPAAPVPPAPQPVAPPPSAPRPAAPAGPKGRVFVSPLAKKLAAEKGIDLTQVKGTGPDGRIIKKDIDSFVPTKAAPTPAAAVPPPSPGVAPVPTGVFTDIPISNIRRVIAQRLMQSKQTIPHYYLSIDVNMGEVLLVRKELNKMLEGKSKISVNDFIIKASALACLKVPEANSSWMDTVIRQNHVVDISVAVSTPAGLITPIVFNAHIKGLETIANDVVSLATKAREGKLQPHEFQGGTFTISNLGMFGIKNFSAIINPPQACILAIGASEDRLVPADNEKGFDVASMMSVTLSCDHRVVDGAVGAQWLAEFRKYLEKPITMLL
# T1 sequence (P22439 54-501 partner): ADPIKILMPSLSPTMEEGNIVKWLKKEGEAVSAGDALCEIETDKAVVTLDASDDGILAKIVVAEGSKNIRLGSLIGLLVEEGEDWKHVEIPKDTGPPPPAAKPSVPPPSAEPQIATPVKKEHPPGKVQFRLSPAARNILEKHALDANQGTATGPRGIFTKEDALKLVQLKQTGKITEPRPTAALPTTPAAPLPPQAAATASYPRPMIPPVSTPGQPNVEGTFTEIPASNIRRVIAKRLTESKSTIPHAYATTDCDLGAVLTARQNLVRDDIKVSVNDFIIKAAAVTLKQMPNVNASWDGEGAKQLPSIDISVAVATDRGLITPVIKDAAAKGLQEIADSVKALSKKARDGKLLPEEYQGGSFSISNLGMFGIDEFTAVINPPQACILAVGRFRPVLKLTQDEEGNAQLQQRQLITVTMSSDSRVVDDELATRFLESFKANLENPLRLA
# T1 sequence (F1N206 36-509 partner): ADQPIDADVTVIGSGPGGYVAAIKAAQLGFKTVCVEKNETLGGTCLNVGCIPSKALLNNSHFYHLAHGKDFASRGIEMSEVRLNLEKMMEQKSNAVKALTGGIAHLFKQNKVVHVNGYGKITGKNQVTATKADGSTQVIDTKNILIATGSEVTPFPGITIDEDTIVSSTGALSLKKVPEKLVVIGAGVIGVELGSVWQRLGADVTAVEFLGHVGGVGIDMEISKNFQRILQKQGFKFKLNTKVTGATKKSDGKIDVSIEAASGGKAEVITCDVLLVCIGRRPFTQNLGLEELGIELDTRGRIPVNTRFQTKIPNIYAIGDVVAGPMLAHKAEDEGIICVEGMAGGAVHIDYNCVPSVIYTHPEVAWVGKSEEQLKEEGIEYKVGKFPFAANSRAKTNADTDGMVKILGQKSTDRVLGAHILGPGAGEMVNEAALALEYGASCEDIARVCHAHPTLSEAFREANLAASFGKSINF
# Method: To examine the effect of α-KB on pyruvate dehydrogenase, the Pyruvate Dehydrogenase (PDH) Enzyme Activity Microplate Assay Kit (Abcam, ab109902) was used. The assay was performed according to the protocol provided. Detergent was added to bovine heart mitochondrial lysate (Abcam, ab110338) and followed by an incubation at 4° C. for 20 minutes to release PDH. The sample was then centrifuged at 14,000×g for 10 minutes. Supernatant was diluted with the incubation buffer and added to a PDH antibody-coated 96-well plate. After 3 hours incubation followed by 2× wash with stabilizer buffer, the wells were added with 200 μL of reaction mix containing 10, 20, 50, 200, and 800 μM α-KB or vehicle control (distilled water). Each condition was performed in triplicates. Kinetic measurements of absorbance at 450 nm with 1 minute intervals were taken, and PDH activity was calculated from the slope of the absorbance to time. The readings were normalized to vehicle mean (as 100 percent).
# [1] = target: TOR (target of rapamycin) (Homo sapiens, UniProt P42345); assay: TOR inhibition
structure (smiles),measurement,setting,value
"CCC(=O)C(=O)O [α-KB, α-ketobutyrate]",HCV infection (luciferase activity),HCV,inhibits or reduces viral infection
same,normalized PDH activity (percentage),pyruvate dehydrogenase; 200 μM,68.0±11.8 percentage
same,normalized PDH activity (percentage),pyruvate dehydrogenase; 800 μM,41.6±7.89 percentage
same,inhibition of TOR,[1],does not inhibit
